Experimental data as given in patent US11584937B2, “Compositions and methods for controlling plant growth and development” (THE TRUSTEES OF THE UNIVERSITY OF PENNSYLVANIA, priority 2014, dated 2023).

What was measured:
APETALA1 (AP1) = assay: AP1 induction (qRT-PCR, pAP1:AP1-GFP imaging) in GR-fusion transgenic plants after treatment; type: in vivo, Arabidopsis thaliana; conditions: 4 hours
Method: For mock treatment, 0.01% ethanol (EtOH) with 0.01% Silwet L-77 was used as control. […] For test of AP1 induction in single or double hemizygous transgenic lines (FIG. 4A, C, and figure S9) treatments were performed by spraying 16-day-old plants grown on plates once with 10 μM dexamethasone and/or 10 μM paclobutrazol. Tissues were harvested after 4 hours. […] 16-day-old 35S:AlcR pAlcA:mir156f/- 35S:LFY-GR/- plants were sprayed with 10 μM dexamethasone plus 10 μM paclobutrazol and exposed to ethanol vapor or water control. Tissues were harvested after 4 hours. […]
For qRT-PCR, RNA was isolated form entire plants after the switch to reproduction using TRIzol reagent (Invitrogen) and RNeasy Mini kits (Qiagen) and processed as previously described (45). […] Quantitative real-time PCR was performed using Power SYBR green mastermix (Applied Biosystems). The mean and standard error were determined using three technical replicates from one representative experiments. […]
For imaging of GFP fluorescence, inflorescence apices were dissected to remove older flowers and imaged using a Leica confocal microscope (Leica, LCS SL) equipped with an argon-krypton ion laser with the appropriate filter sets for visualizing GFP. […]

Arabidopsis = assay: Number of rosette leaves (vegetative phase) and of cauline leaves and branches (first inflorescence phase) after hormone or inhibitor treatment; type: in vivo, Arabidopsis thaliana
Method: Plants were grown at 23° C. in a 16 h light/8 h dark cycle. The following plant lines were previously described: lfy-1 null and lfy-2 hypomorph mutants; lfy-6 null mutants, 35S:LFY-GR; 35S:LFY; gal-3; gai; pRGA:RGA-GFP; pRGA:RGA-HA; gal-3 rgl2-1 rga-2 35S:RGA-GR; pSPL9:rSPL-FLAG; 35S:AlcR pAlcA:mir156f; and 35S:SPL9-GR and pAP1:AP1-GFP. […] Most plants were in the Columbia background except for 35S:LFY-GR, pRGA:RGA-GFP, and lfy-6 mutants, which were in the Landsberg erecta background. To avoid comparisons of plants in different ecotype backgrounds, we performed crosses between homozygous transgenic plants and conducted all subsequent analyses in the F1 population. […] Statistical analyses were performed on plant phenotypes that are normally distributed. The population size was determined by expedience (tissue or plant amount that could reasonably be obtained).
For mock treatment, 0.01% ethanol (EtOH) with 0.01% Silwet L-77 was used as control. […] For paclobutrazol treatment in wild type to examine the number of rosette and cauline leaves formed (figure S8), wild-type plants were first germinated on MS plates. After 4 days plants were transferred either to MS plates containing 1 μM paclobutrazol or to control MS plates and grown for 6 more days. At day 10, the plants were transplanted to soil. […] For test of the number of rosette or cauline leaves produced under conditions of increased DELLA accumulation/activity (FIG. 4E), WT, 35S:LFY/-, pSPL9:rSPL9-FLAG/-, and 35S:LFY/- pSPL9:rSPL9-FLAG/- were first germinated on MS plates, followed by transfer to MS plates containing 1 μM paclobutrazol or to control MS plates from day 4 to day 10 of age. At day 10, the plants were transplanted onto soil.

[1] = wild-type plants, MS plates containing 1 μM paclobutrazol day 4 to day 10, versus control plates

CC(C)(C)[C@@H](O)[C@@H](Cc1ccc(Cl)cc1)n1cncn1 (racemic) [paclobutrazol]
pAP1:AP1-GFP expression in young flower primordia (APETALA1 (AP1); 35S:LFY-GR plants, Dex 10 μM plus PAC 10 μM, confocal imaging): increase in AP1-GFP
production of AP1 in young flower primordia (APETALA1 (AP1); LFY-GR plants, 10 μM paclobutrazol simultaneously with 10 μM dexamethasone, relative to either alone): increased production of AP1
number of cauline leaves formed (Arabidopsis; 35S:LFY pSPL9:rSPL9-FLAG plants, 1 μM paclobutrazol day 4 to day 10, mean±SEM, 35S:LFY plants 2.5±0.2): 0.3±0.1
number of branches and cauline leaves (duration of the first inflorescence phase) (Arabidopsis; [1]): fewer
number of rosette leaves (duration of the vegetative phase) (Arabidopsis; [1]): more
